Reference: paper PMC9326368, “A Novel PARP Inhibitor YHP-836 For the Treatment of BRCA-Deficiency Cancers” (Frontiers in Pharmacology, 2022)

How the values were obtained:
[1] = biological target: PARP1 (Homo sapiens, UniProt P09874); assay: PARP1 enzymatic assay on histone-coated plate with NAD+, PAR product detection; assay type: biochemical
[2] = biological target: PARP2 (Homo sapiens, UniProt Q9UGN5); assay: PARP2 enzymatic assay on histone-coated plate with NAD+, PAR product detection; assay type: biochemical
Sequence of PARP2 (Q9UGN5 whole entry): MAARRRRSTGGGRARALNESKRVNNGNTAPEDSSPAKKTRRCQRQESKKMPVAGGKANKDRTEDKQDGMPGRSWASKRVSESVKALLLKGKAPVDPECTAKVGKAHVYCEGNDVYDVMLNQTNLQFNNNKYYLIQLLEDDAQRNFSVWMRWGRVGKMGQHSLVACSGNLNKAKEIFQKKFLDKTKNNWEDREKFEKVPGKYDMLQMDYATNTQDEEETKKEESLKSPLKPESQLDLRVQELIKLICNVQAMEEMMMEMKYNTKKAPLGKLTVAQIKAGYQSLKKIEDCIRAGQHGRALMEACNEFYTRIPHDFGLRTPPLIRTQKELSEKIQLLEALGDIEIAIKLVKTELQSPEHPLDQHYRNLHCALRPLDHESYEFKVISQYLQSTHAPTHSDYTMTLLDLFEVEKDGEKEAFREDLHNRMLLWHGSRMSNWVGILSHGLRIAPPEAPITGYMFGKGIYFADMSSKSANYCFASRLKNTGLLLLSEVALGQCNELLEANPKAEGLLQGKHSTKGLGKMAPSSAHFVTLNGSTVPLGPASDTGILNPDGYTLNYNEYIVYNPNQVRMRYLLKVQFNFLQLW

Sequence of PARP1 (P09874 2-1014): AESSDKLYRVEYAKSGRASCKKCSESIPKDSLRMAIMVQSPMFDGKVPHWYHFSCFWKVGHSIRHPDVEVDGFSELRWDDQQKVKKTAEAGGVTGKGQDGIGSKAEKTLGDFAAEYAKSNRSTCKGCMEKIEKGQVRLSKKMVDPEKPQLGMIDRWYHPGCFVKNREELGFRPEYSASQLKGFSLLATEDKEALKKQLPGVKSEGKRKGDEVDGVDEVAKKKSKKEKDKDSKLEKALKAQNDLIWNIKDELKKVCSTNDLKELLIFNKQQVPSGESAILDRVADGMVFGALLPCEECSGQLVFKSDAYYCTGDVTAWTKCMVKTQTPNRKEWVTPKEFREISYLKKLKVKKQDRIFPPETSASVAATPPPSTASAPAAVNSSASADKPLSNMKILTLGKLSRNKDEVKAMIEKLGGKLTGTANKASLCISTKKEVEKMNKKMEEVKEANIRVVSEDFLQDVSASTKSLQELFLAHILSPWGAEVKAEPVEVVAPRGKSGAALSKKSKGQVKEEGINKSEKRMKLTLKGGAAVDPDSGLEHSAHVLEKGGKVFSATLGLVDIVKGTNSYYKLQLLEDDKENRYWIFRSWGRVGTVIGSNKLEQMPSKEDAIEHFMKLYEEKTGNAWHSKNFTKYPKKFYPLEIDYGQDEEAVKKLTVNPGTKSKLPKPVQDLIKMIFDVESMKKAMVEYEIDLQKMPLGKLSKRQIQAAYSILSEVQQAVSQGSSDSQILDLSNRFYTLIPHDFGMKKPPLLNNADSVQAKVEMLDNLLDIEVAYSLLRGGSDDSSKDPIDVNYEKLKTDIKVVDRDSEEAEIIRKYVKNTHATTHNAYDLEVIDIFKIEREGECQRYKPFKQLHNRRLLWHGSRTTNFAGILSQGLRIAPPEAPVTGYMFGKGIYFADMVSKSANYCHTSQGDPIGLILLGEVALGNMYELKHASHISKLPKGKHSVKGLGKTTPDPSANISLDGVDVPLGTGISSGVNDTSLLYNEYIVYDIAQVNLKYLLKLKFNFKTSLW

## O=C(c1cc(Cn2c(=O)[nH]c(=O)c3ccccc32)ccc1F)N1CCN(CC(F)(F)F)CC1 [YHP-836]
[1]
  IC50: 6.33 nM
[2]
  IC50: 3.62 nM
